Experimental data: patent US20220401483A1, “COMBINATION OF A T CELL THERAPY AND (S)-3-[4-(4-MORPHOLIN-4-YLMETHYL-BENZYLOXY)-L-OXO-L,3-DIHYDRO-ISOINDOL-2-YL]-PIPERIDINE-2,6-DIONE” (Juno Therapeutics, Inc., priority 2019, published 2022)

Assays:
Type in all cases: cell-based, human
[1] = system: K562.CD19, Raji, Granta-519 cells; experiment: Cytolytic activity of CAR T cells after chronic stimulation with concurrent treatment, rechallenge with CD19+ tumor cells; conditions: 0.001 μM or 0.01 μM, E:T 1:1, vs control
Experimental: Anti-CD19 CAR-expressing T cells were produced substantially as described in Example 1. To subject cells to chronic stimulation conditions, the CAR+ T cells were stimulated with 30 μg/mL plate-bound anti-idiotypic (anti-ID) antibody (see e.g. WO2018/023100) for 6 days in the presence of (S)-3-[4-(4-morpholin-4-ylmethyl-benzyloxy)-1-oxo-1,3-dihydro-isoindol-2-yl]-piperidine-2,6-dione (Compound A) or a vehicle control, to induce chronic stimulation. After the 6-day culture period, the anti-CD19 CAR-expressing T cells were removed from culture and incubated with K562 cells transduced with CD19 (K562.CD19), Raji tumor cells, and Granta-519 tumor cells (to rechallenge the CAR-T cells) at an effector to target ratio of 2.5:1 unless otherwise indicated, in the presence of Compound A, at concentrations ranging from 0.001 μM to 10 μM, or vehicle control for up to 10 days. […] Cells were assessed at various times for cytolytic function, CAR T cell number and cytokine production.
CAR T cells that had been stimulated for 6 days with anti-ID concurrently in the presence of Compound A (0.001 μM or 0.01 μM) were washed free of compound and co-cultured with CD19+ tumor cells at an effector to target (E:T) ratio of 1:1 in the absence of Compound A. The assessed CD19+ tumor cells included K562 cells transduced with CD19 (K562.CD19), Raji cells, or Granta-519 cells.

[2] = system: Granta-519 tumor spheroids; experiment: Spheroid tumor growth assay after chronic stimulation with concurrent treatment
Experimental: CAR T cells that had been stimulated for 6 days with anti-ID concurrently in the presence of Compound A (0.001 μM or 0.01 μM) were co-cultured with by incubation with Granta-519 tumor spheroids, and CAR T cell cytolytic function and cytokine function were assessed at various time points. For comparison, cytolytic activity was also assessed for cells that had been similarly chronically stimulated with anti-ID in the presence of 1 μM or 0.1 μM Compound B. Averaged measurement of tumor spheroid size at various times following co-culture with CAR-T cells was monitored.
Cytokines (IFNγ, IL-2 and TNFalpha) were measured from supernatant of the chronically stimulated CAR T cells above that had been co-cultured for 5 days with CD19 tumor spheroids. The log 2 fold change compared to control cells (chronically stimulated cells that had not been concurrently treated with Compound A immunomodulatory compound) is shown in FIG. 3F.

anti-CD19 CAR T cells = experiment: RNA-seq gene expression of anti-CD19 CAR T cells sorted from tumor spheroids
Experimental: Gene expression analysis of anti-CD19 CAR T cells sorted from tumor spheroids 5 days after co-culture as described above was analyzed by RNA sequencing (RNA-seq) on the complementary DNA (cDNA) samples prepared from the RNA isolated from the long-term stimulated CAR-expressing T cells or on CAR-expressing T cells that had not undergone the long-term stimulation. Libraries for RNA-seq were sequenced on Illumina NextSeq system. Reads were mapped to the human reference genome GRCh38, and gene expression levels were quantified in Array Studio. Differential expression (DE, for RNA-seq) analysis was performed using DESeq2.
The dots on the top left quadrant represent genes induced by chronic stimulation and the dots on the lower right quadrant represent genes reversed by Compound A.
Pathway enrichment analysis of the differentially expressed genes were performed using clusterProfiler.
Gene expression analysis by RNA-seq was carried out substantially as described in Example 3.

Compound: O=C1CC[C@H](N2Cc3c(OCc4ccc(CN5CCOCC5)cc4)cccc3C2=O)C(=O)N1 [Compound A, (S)-3-[4-(4-morpholin-4-ylmethyl-benzyloxy)-1-oxo-1,3-dihydro-isoindol-2-yl]-piperidine-2,6-dione]
- cytolytic activity (tumor cell number over time) [1]: improved
- cytolytic function, average tumor volume after 9 days [2]: significantly increased cytolytic function
- cytolytic function, Granta-519 spheroid growth ([2]; 0.001 μM or 0.01 μM): improved cytolytic function
- IFNγ in co-culture supernatant ([2]; 5 days co-culture with spheroids): statistically significant increase
- improvement in cytolytic function compared with Compound B ([2]; Compound B 1 μM or 0.1 μM): greater
- expression changes in genes of T cell function pathways after chronic stimulation (anti-CD19 CAR T cells; concurrent treatment): can be reversed
- expression changes in genes of T cell function pathways after chronic stimulation (anti-CD19 CAR T cells; rescue treatment): can also be reversed
